In publication PMC6038709, “The Drosophila melanogaster Na^+/Ca^2+ Exchanger CALX Controls the Ca^2+ Level in Olfactory Sensory Neurons at Rest and After Odorant Receptor Activation” (Frontiers in Cellular Neuroscience, 2018):

Molecular target: T1, Orco (Or83b) (Drosophila melanogaster, UniProt Q9VNB5)
T1 construct: full-length Orco in pcDNA3.1(-), expressed alone (no OrX) in HEK293 cells
T1 sequence (Q9VNB5 1-486): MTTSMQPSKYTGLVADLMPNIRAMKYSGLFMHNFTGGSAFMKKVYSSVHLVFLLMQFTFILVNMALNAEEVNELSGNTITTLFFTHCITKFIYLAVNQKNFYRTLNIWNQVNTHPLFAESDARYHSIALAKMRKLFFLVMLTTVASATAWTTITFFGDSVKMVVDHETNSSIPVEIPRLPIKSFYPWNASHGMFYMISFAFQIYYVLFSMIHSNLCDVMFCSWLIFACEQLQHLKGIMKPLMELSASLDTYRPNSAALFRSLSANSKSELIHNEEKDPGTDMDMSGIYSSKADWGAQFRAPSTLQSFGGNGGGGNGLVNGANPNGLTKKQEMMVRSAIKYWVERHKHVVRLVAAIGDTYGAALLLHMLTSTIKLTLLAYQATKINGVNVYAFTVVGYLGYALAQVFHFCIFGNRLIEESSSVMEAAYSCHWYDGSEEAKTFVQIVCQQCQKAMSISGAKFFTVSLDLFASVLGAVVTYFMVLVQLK
Assay: fura-2 calcium imaging, HEK293 cells
Type: cell-based
Details: block of VUAA1-evoked (100 or 50 uM) calcium rise; KB-R7943 100 uM (Methods); pH 7.4; Orco without OrX

Q: `N=C(N)SCCc1ccc(OCc2ccc([N+](=O)[O-])cc2)cc1` [KB-R7943, 2-[4-[(4-nitrophenyl)methoxy]phenyl]ethyl ester carbamimidothiotic acid, monomethanesulfonate] was tested. Which “fura-2 calcium imaging, HEK293 cells” value did it give?
A: we confirmed that KB-R7943 is blocking Orco
